Results taken from the supplement of paper PMC10307832.

Key:
Test in all cases: relative viability (nuclei count vs DMSO), 5 days (fraction); higher = more cells survive
[1] = compound: N[C@@H]1CCCN(c2c(/C=C3\SC(=O)NC3=O)cccc2-c2ccccc2)C1 [AZD1208] + CC(C)C[C@H](NC(=O)[C@H](Cc1ccccc1)NC(=O)c1cnccn1)B(O)O [Bortezomib] (partner 0.002 µM)
Outline: (§1)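 Relative viability equals treated-well nuclei counts divided by vehicle-well nuclei counts. Counts came from 4× images of lung cancer cell lines grown in 1536-well plates for 5 days after pin-tool dosing on the day after seeding. Dosing used one drug alone or a fixed anchor-drug dose plus five library-drug doses (not always all listed) in √10 steps, and values are medians of duplicate plates.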

[2] = compound: CN1CCN(CC1)C2=CC(=C(C=C2)NC3=NC(=C(S3)C(=O)C4=C(C=CC=C4Cl)Cl)N)OC [XMD14-99] + O=C(c1cc(Cc2n[nH]c(=O)c3ccccc23)ccc1F)N1CCN(C(=O)C2CC2)CC1 [Olaparib] (partner 8 µM)
Outline: as §1

[3] = compound: N[C@@H]1CCCN(c2c(/C=C3\SC(=O)NC3=O)cccc2-c2ccccc2)C1 [AZD1208] + C[C@]1(O)C[C@@H](c2nc(-c3ccc4ccc(-c5ccccc5)nc4c3)c3c(N)nccn32)C1 [Linsitinib] (partner 1 µM)
Outline: as §1

[4] = compound: CN1CCN(CC1)C2=CC(=C(C=C2)NC3=NC(=C(S3)C(=O)C4=C(C=CC=C4Cl)Cl)N)OC [XMD14-99] + Cc1nc(NC(=O)N2CCC[C@H]2C(N)=O)sc1-c1ccnc(C(C)(C)C(F)(F)F)c1 [Alpelisib] (partner 2 µM)
Outline: as §1

Cell Line | relative viability ([1]; first compound 0.08 µM) | relative viability ([1]; first compound 0.253 µM) | relative viability ([1]; first compound 0.8 µM) | relative viability ([1]; first compound 2.53 µM) | relative viability ([1]; first compound 8 µM) | relative viability ([2]; first compound 0.08 µM) | relative viability ([2]; first compound 0.8 µM) | relative viability ([2]; first compound 2.53 µM) | relative viability ([2]; first compound 8 µM) | relative viability ([3]; first compound 0.08 µM) | relative viability ([3]; first compound 0.253 µM) | relative viability ([3]; first compound 0.8 µM) | relative viability ([3]; first compound 2.53 µM) | relative viability ([3]; first compound 8 µM) | relative viability ([4]; first compound 0.08 µM) | relative viability ([4]; first compound 0.8 µM) | relative viability ([4]; first compound 2.53 µM) | relative viability ([4]; first compound 8 µM)
HCC-44 | 0.991 | 0.952 | 0.857 | 0.978 | 0.95 | 1.08 | 1.01 | 1.01 | 0.956 | 0.634 | 0.676 | 0.665 | 0.672 | 0.593 | 0.825 | 0.788 | 0.821 | 0.797
HCC-827 | 1.13 | 1.06 | 0.97 | 1.07 | 1.14 | 0.596 | 0.632 | 0.622 | 0.491 | 0.965 | 1.03 | 1.01 | 1.01 | 1.02 | 1.05 | 0.902 | 0.948 | 0.741
NCI-H2405 | 0.986 | 1.01 | 0.936 | 1.01 | 0.989 | 0.839 | 0.918 | 0.758 | 0.723 | 0.8 | 0.789 | 0.737 | 0.883 | 0.853 | 0.792 | 0.895 | 0.809 | 0.416
PC-3 [JPC-3] | 0.833 | 0.972 | 0.887 | 0.927 | 0.855 | 1.09 | 1.1 | 1.16 | 0.733 | 1.05 | 1.01 | 1.02 | 1.06 | 1 | 1.06 | 0.947 | 0.916 | 0.893
NCI-H1651 | 0.978 | 0.925 | 0.858 | 0.96 | 0.816 | 0.187 | 0.203 | 0.147 | 0.157 | 0.912 | 0.619 | 0.758 | 0.852 | 0.83 | 0.841 | 0.836 | 1.09 | 0.917
HARA | 1.09 | 1.12 | 1.08 | 1.18 | 1.19 | 0.816 | 0.999 | 0.589 | 0.491 | 0.948 | 1.02 | 0.899 | 0.964 | 0.877 | 0.872 | 0.784 | 0.734 | 0.481
NCI-H1650 | 0.201 | 0.19 | 0.226 | 0.199 | 0.192 | 0.834 | 0.597 | 0.639 | 0.734 |  |  |  |  |  |  |  |  | 
NCI-H1395 |  |  |  |  |  | 0.475 | 0.472 | 0.47 | 0.364 | 0.989 | 1.15 | 0.979 | 1.07 | 0.881 | 1.07 | 1.17 | 1.05 | 0.883
NCI-H1993 |  | 1.04 | 0.925 | 0.998 | 0.888 | 1.11 | 0.942 | 0.943 | 0.793 |  | 0.722 | 0.731 | 0.739 | 0.654 | 0.63 | 0.731 | 0.601 | 0.59
LU99A | 1.07 | 1.2 | 1.27 | 1.12 | 0.904 | 0.304 | 0.263 | 0.19 | 0.135 | 0.504 | 0.5 | 0.51 | 0.397 | 0.432 | 0.511 | 0.547 | 0.46 | 0.415
NCI-H1355 | 1.29 | 1.09 | 1.15 | 1.2 | 1.04 | 0.72 | 0.708 | 0.715 | 0.493 | 0.846 | 0.921 | 0.718 | 0.737 | 0.695 | 0.928 | 0.893 | 0.68 | 0.657
HCC-78 | 0.474 | 0.586 | 0.453 | 0.475 | 0.529 | 0.716 | 0.799 | 0.724 | 0.589 | 0.513 | 0.495 | 0.45 | 0.439 | 0.415 | 0.371 | 0.308 | 0.331 | 0.291
NCI-H1563 | 0.829 | 0.811 | 0.958 | 0.754 | 0.765 |  |  |  |  | 1.18 | 1.19 | 1.18 | 1.26 | 1.16 | 0.85 | 0.894 | 0.957 | 0.869
HCC-15 | 1.06 | 1.21 | 1.07 | 1.08 | 0.948 | 0.688 | 0.661 | 0.706 | 0.441 | 0.811 | 0.864 | 0.648 | 0.793 | 0.655 | 0.906 | 0.883 | 0.827 | 0.657
EKVX | 1.17 | 1.21 | 1.03 | 1.2 | 1 | 0.763 | 0.837 | 0.904 | 0.73 | 0.996 | 1.19 | 0.917 | 0.87 | 1.11 | 0.767 | 0.985 | 0.876 | 0.696
NCI-H2126 | 1.1 | 1.14 | 1.09 | 1.07 | 1.1 | 0.96 | 0.87 | 0.736 | 0.759 | 0.678 | 0.647 | 0.65 | 0.633 | 0.623 | 0.745 | 0.75 | 0.723 | 0.647
LK-2 |  |  |  |  |  | 0.751 | 0.591 | 0.685 | 0.419 | 0.43 | 0.523 | 0.302 | 0.263 | 0.268 | 1.01 | 1.11 | 0.855 | 1.05
NCI-H1437 | 0.542 | 0.754 | 0.584 | 0.42 | 0.444 | 0.615 | 0.622 | 0.56 | 0.464 | 1.03 | 1.09 | 0.887 | 0.832 | 0.866 | 0.881 | 0.804 | 0.787 | 0.671

Cell Line | relative viability ([1]; first compound 0.08 µM) | relative viability ([1]; first compound 0.253 µM) | relative viability ([1]; first compound 0.8 µM) | relative viability ([1]; first compound 2.53 µM) | relative viability ([1]; first compound 8 µM) | relative viability ([2]; first compound 0.08 µM) | relative viability ([2]; first compound 0.8 µM) | relative viability ([2]; first compound 2.53 µM) | relative viability ([2]; first compound 8 µM) | relative viability ([3]; first compound 0.08 µM) | relative viability ([3]; first compound 0.253 µM) | relative viability ([3]; first compound 0.8 µM) | relative viability ([3]; first compound 2.53 µM) | relative viability ([3]; first compound 8 µM) | relative viability ([4]; first compound 0.08 µM) | relative viability ([4]; first compound 0.8 µM) | relative viability ([4]; first compound 2.53 µM) | relative viability ([4]; first compound 8 µM)
COR-L23 | 0.927 | 1.11 | 0.888 | 1.02 | 0.929 | 0.345 | 0.298 | 0.298 | 0.193 | 0.84 | 1.09 | 0.824 | 0.825 | 0.771 | 0.768 | 0.749 | 0.515 | 0.301
ABC-1 | 0.302 | 0.31 | 0.282 | 0.268 | 0.213 | 0.696 | 1.03 | 0.737 | 0.673 | 0.808 | 0.717 | 0.626 | 0.747 | 0.732 | 1.03 | 0.985 | 0.927 | 0.747
SW 900 |  |  |  |  |  | 0.831 | 0.845 | 0.766 | 0.525 |  |  |  |  |  |  |  |  | 
PC-14 | 0.963 | 0.954 | 0.848 | 1.01 | 0.907 | 0.276 | 0.248 | 0.164 | 0.0816 | 0.942 | 1.12 | 0.977 | 1 | 0.914 | 0.813 | 0.921 | 0.901 | 0.73
NCI-H1648 |  |  |  |  |  | 0.95 | 0.433 | 0.654 | 0.316 |  |  |  |  |  |  |  |  | 
A549 |  |  |  |  |  | 0.471 | 0.377 | 0.311 | 0.27 | 0.513 | 0.553 | 0.504 | 0.462 | 0.512 | 0.749 | 0.759 | 0.641 | 0.576
A-427 | 1 | 0.939 | 0.963 | 0.936 | 0.884 | 0.793 | 0.628 | 0.67 | 0.501 | 1.12 | 1.12 | 1 | 1.17 | 1.02 | 1.09 | 1.08 | 0.954 | 0.9
NCI-H1792 | 0.999 | 0.987 | 0.903 | 0.958 | 0.86 | 0.486 | 0.383 | 0.265 | 0.0886 | 0.474 | 0.648 | 0.446 | 0.439 | 0.467 | 0.688 | 0.734 | 0.627 | 0.474
LCLC-97TM1 | 0.671 | 0.737 | 0.51 | 0.762 | 0.475 | 0.415 | 0.351 | 0.35 | 0.209 | 0.156 | 0.206 |  | 0.133 | 0.132 | 0.263 | 0.201 | 0.202 | 0.202
NCI-H1703 | 0.277 | 0.159 | 0.246 | 0.253 | 0.305 | 0.492 | 0.456 | 0.622 | 0.269 | 0.751 | 0.56 | 0.602 | 0.651 | 0.508 | 0.338 | 0.36 | 0.487 | 0.334
ChaGo-K-1 | 1.21 | 0.983 | 1.04 | 0.975 | 0.92 | 0.473 | 0.438 | 0.403 | 0.292 |  |  |  |  |  |  |  |  | 
NCI-H358 |  |  |  |  |  | 0.603 | 0.773 | 0.585 | 0.312 | 0.675 | 0.604 | 0.564 | 0.71 | 0.605 | 0.751 | 0.841 | 0.715 | 0.304
NCI-H1944 |  |  |  |  |  | 0.448 | 0.404 | 0.397 | 0.283 | 1.14 | 1.19 | 1.01 | 0.953 | 0.82 | 0.902 | 0.867 | 0.805 | 0.755
NCI-H2342 |  |  |  |  |  | 0.548 | 0.459 | 0.484 | 0.409 |  |  |  |  |  |  |  |  | 
NCI-H522 |  |  |  |  |  | 0.586 | 0.808 | 0.594 | 0.557 |  |  |  |  |  |  |  |  | 
SK-MES-1 |  |  |  |  |  | 0.658 | 0.689 | 0.576 | 0.32 | 1.01 | 1.02 | 1.06 | 1.04 | 0.969 | 0.924 | 0.909 | 0.851 | 0.591
NCI-H2170 |  |  |  |  |  | 0.543 | 0.565 | 0.537 | 0.466 |  |  |  |  |  | 0.771 | 0.762 | 0.854 | 0.734
NCI-H1793 |  |  |  |  |  | 0.818 | 0.915 | 0.782 | 0.622 | 0.765 | 0.804 | 0.564 | 0.967 | 0.583 | 0.77 | 0.641 | 0.666 | 0.476
